How the values were obtained:
[1] = human, cited from earlier work
[2] = molecular target: T1, cytochrome P450 1A2 (CYP1A2) (Homo sapiens, UniProt P05177); conditions: healthy subjects, cited from earlier work
T1 construct: from tissue; host or cells: in vivo, healthy human subjects (as reported in Kanodia et al. 2021)

human recombinant DAT = molecular target: T2, human recombinant DAT (Homo sapiens, UniProt Q01959); assay: Neurotransmitter uptake inhibition, [3H]-DA, hDAT cells; type: cell-based; conditions: mean, 3 to 9 experiments
T2 construct: expressed in transfected cells; host or cells: CHO-K1
Text: (§1) The in vitro pharmacology of ampreloxetine at human recombinant and rat native monoamine transporters was characterized as described in Smith et al., Inter. J. Neuropsychopharmcol. (2015) 1-11; and Tsuruda et al., J. Pharmacol. Toxicol. Meth. (2010) 61:192-204. See also, e.g., U.S. Pat. Nos. 8,304,432 B2 and 8,304,433 B2. Radioligands were sourced commercially (Perkin Elmer LifeSciences or GE Healthcare Life Sciences).
(§2) Briefly, membranes prepared from HEK293 (Human Embryonic Kidney 293) or CHO-K1 (Chinese Hamster Ovary-K1) cells stably transfected with human recombinant SERT (HEK293-hSERT), NET (HEK293-hNET), or DAT (CHO-K1-hDAT) were incubated for 1 hr at 22° C. in the absence, or presence, of 4-[2-(2,4,6-trifluorophenoxymethyl)phenyl]piperidine and [^3H]-citalopram (1.0 nM) for SERT, [^3H]-nisoxetine (2.0 nM) for NET, and [^3H]-WIN35428 (3.0 nM) for DAT in 50 mM Tris-HCl, 120 mM NaCl, 5 mM KCl, 0.025% BSA, 100 μM ascorbic acid, pH 7.4. Rat cortical membrane preparations were incubated with [^3H]-citalopram (2.0 nM) for SERT or [^3H]-nisoxetine (4.0 nM) for NET for 1 hr at 22° C. […] Binding and uptake assays were terminated by rapid filtration and radioactivity determined by liquid scintillation spectroscopy. […] Selectivity for NET (rounded to one significant figure) was determined as follows: […]

rat native NET [3] = molecular target: T3, rat native NET (Rattus norvegicus, UniProt Q63380); assay: Radioligand binding, [3H]-nisoxetine, rat cortical membranes; conditions: mean (95% confidence intervals)
T3 construct: human recombinant and rat native monoamine transporters; from tissue; host or cells: rat cerebral cortex (membranes; synaptosomes)
Text: as §1, §2

plasma protein = assay: Plasma protein binding, rat; type: in vitro ADME
rat native SERT = molecular target: T4, rat native SERT (Rattus norvegicus, UniProt P31652); assay: Radioligand binding, [3H]-citalopram, rat cortical membranes; conditions: mean (95% confidence intervals)
T4 construct: human recombinant and rat native monoamine transporters; from tissue; host or cells: rat cerebral cortex (membranes; synaptosomes)
Text: as §1, §2

rat native NET [4] = assay: [3H]-NE uptake inhibition, rat cortical synaptosomes; type: biochemical; conditions: [3H]-NE vs [3H]-5-HT uptake
Text: as §1, §2

[5] = test system: heart rate (HR) and mean arterial pressure (MAP); assay: Cardiovascular model in anesthetized rat: intrinsic effect on MAP and HR; type: in vivo; conditions: anesthetized rats
Protocol: These studies were conducted to assess the effect of a single administration of ampreloxetine on heart rate (HR) and mean arterial pressure (MAP) in anesthetized rats. Using this cardiovascular model, the intrinsic effect on HR and the inhibition of tyramine pressor response were evaluated as surrogate measures that reflect the ability of ampreloxetine to inhibit norepinephrine transporters in the periphery.
Normotensive male Sprague-Dawley rats weighing between 250-350 g were anesthetized with an intraperitoneal injection (IP) of thiobutabarbital (Inactin). All animals were kept under complete anesthesia (i.e., absence of response to toe pinch test) for the surgery and for the duration of the study. The right common carotid artery and jugular vein were isolated and catheterized. The trachea was intubated to keep the airway open during the study. After completion of surgery, the arterial catheter was connected to a pressure transducer and baseline blood pressure [Systolic (SBP), Mean Arterial (MAP) and Diastolic (DBP)] and heart rate (HR) were recorded using the Notocord-HEM data acquisition system. Following at least 60 min of baseline (i.e., the last 10 min was stable), vehicle (10% Tween20, 2 mL/kg, IP) was administered and any potential effect was monitored for at least 10 min. After this period, rats were injected with either vehicle or ampreloxetine ([…], 2 mL/kg, IP) and changes in MAP and HR were monitored for 25 min. Rats were then challenged intravenously via the jugular vein catheter, with non-cumulative bolus doses of tyramine (0.03, 0.1, 0.3, and 1 mg/kg, 1 mL/kg, IV) given at 5 min intervals. After the last dose of tyramine, data acquisition continued for another 10 min before the experiment was terminated. In a separate group of animals, blood was collected to assess the concentration of ampreloxetine in plasma at 15 min and 60 min after dosing. Free plasma concentrations obtained from 15 min were used to construct the concentration response curve (CRC) to MAP and HR while concentrations from 60 min were used for the tyramine CRC. Animals were euthanized by carbon dioxide asphyxiation followed by thoracotomy.
Intrinsic hemodynamic effects were reported as the maximum change in MAP or HR induced by ampreloxetine before tyramine challenge. Inhibition of tyramine effect was normalized to the response to 1 mg/kg dose of tyramine in the vehicle control group. Concentration response curves (CRCs) of the change in MAP, HR and inhibition of tyramine response were analyzed through iterative curve fitting to a logistic equation using Prism 5.00™ (GraphPad, Inc.). The equation used was as follows:
Y=(Bottom+Top−Bottom)/(1+10^((Log EC50−X)*HillSlope)) […]

healthy subjects = conditions: single dose up to 50 mg and multiple doses up to 20 mg once per day; cited from earlier work

T1 sequence (P05177 whole entry): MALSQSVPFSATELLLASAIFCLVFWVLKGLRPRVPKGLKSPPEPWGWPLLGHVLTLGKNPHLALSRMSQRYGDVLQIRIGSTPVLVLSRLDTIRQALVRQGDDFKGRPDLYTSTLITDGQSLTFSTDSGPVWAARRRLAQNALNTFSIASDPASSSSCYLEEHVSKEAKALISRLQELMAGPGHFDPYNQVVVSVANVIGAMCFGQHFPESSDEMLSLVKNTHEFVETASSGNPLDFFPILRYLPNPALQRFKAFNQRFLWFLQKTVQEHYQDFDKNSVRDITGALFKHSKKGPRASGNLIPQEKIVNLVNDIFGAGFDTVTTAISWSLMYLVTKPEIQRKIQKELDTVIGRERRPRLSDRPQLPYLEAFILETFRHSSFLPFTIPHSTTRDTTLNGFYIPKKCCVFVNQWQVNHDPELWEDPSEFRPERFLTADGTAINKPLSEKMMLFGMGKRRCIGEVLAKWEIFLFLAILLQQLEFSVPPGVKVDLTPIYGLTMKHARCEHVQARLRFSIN
T4 sequence (P31652 whole entry): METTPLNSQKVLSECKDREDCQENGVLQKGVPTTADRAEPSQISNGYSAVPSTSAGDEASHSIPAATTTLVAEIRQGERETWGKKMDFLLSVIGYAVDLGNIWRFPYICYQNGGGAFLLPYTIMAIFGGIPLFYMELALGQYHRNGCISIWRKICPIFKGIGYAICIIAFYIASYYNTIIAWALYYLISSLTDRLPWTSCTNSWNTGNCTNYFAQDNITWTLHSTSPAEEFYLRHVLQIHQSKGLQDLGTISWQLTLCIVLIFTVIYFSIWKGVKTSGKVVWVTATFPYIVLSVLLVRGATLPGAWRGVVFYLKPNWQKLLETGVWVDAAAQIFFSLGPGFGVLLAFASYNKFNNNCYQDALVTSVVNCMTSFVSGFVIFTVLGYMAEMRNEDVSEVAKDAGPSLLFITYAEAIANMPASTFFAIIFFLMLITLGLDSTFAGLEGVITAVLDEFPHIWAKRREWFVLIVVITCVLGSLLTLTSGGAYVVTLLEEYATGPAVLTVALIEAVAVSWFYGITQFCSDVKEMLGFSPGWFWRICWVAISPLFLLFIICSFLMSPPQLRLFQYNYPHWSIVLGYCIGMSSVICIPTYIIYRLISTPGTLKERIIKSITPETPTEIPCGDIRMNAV
T2 sequence (Q01959 whole entry): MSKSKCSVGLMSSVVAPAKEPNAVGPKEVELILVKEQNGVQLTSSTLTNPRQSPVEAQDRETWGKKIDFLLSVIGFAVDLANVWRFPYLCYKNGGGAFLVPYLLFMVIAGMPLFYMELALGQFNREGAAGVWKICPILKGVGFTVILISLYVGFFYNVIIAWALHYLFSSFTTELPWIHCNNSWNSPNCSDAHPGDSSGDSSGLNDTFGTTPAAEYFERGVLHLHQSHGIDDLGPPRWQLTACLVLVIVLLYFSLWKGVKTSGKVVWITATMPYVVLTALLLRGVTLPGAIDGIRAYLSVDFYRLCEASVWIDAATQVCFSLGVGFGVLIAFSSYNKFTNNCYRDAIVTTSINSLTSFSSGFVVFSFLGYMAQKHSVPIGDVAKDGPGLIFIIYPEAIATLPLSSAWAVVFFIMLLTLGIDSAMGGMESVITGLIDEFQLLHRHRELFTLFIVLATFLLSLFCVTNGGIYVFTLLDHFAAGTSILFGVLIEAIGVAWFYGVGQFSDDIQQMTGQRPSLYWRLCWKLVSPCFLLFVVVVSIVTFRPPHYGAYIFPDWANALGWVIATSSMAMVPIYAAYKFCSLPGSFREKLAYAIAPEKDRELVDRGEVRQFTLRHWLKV
T3 sequence (Q63380 1-617): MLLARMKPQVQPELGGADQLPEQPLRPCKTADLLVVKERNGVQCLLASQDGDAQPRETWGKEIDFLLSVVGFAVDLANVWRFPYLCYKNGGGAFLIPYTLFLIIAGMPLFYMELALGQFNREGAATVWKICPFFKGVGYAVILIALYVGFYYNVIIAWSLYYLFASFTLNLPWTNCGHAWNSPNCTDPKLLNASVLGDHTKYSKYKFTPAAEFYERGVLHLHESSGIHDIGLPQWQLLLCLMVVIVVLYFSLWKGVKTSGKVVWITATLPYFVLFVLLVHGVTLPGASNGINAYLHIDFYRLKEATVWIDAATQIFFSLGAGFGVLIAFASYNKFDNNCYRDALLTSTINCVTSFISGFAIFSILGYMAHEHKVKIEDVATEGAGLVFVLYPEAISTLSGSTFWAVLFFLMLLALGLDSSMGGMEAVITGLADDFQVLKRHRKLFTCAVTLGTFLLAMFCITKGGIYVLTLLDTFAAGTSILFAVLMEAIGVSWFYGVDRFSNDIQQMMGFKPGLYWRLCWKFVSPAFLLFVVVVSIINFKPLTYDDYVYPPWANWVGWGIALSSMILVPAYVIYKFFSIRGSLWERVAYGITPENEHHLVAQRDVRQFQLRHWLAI

Fc1cc(F)c(OCc2ccccc2C2CCNCC2)c(F)c1 [Ampreloxetine, 4-[2-(2,4,6-trifluorophenoxymethyl)phenyl]piperidine]
Dose proportionality of Cmax and AUC ([1]; administered doses): linear with near dose proportional exposure | Time to steady state ([1]; once daily dosing): ≤ 6 days | Enzyme responsible for metabolism ([2]; CYP1A2): primary enzyme responsible for ampreloxetine metabolism | Fraction eliminated through metabolism [2]: > 90% | Neurotransmitter Uptake Inhibition: pIC50, DAT (human recombinant DAT): 6.8 | Transporter Binding: pKi, NET (rat native NET [3]): 8.7 (8.5, 8.9) | Plasma protein binding (plasma protein): 90.2% | Transporter Binding: pKi, SERT (rat native SERT): 8.5 (8.3, 8.6) | Apparent functional selectivity for NET over SERT (rat native NET [4]): 10 fold | Effect on MAP and HR ([5]; 0.01-30 mg/kg IP): dose dependently increased MAP and HR | Maximum change in HR ([5]; 0.01-30 mg/kg IP): 28.1 (22.4-33.7) bpm | Maximum change in MAP ([5]; 0.01-30 mg/kg IP): 13.2 (4.4-22.1) mm Hg | HR potency (HR EC25), free plasma concentration giving 25 bpm change in HR ([5]; IP, free plasma concentration at 15 min): 8.6 nM | Safety and tolerability (healthy subjects): generally well tolerated
